In paper PMC6331899, “Soluble Epoxide Hydrolase Inhibitory Activity of Selaginellin Derivatives from Selaginella tamariscina” (Molecules, 2015):

Key:
[1] = target: T1, Soluble epoxide hydrolases (human recombinant) (Homo sapiens, UniProt P34913); test: biochemical; settings: triplicate; for inhibition at 100 µM: PHOME substrate, read-out: Inhibitory Rate at 100 μM (%) sEH; for IC50: PHOME hydrolysis, pH 7.0, 37 °C, read-out: sEH IC50
T1 construct: purchased Cayman (Ann Arbor, MI, USA) 10011669
T1 sequence (P34913 1-555): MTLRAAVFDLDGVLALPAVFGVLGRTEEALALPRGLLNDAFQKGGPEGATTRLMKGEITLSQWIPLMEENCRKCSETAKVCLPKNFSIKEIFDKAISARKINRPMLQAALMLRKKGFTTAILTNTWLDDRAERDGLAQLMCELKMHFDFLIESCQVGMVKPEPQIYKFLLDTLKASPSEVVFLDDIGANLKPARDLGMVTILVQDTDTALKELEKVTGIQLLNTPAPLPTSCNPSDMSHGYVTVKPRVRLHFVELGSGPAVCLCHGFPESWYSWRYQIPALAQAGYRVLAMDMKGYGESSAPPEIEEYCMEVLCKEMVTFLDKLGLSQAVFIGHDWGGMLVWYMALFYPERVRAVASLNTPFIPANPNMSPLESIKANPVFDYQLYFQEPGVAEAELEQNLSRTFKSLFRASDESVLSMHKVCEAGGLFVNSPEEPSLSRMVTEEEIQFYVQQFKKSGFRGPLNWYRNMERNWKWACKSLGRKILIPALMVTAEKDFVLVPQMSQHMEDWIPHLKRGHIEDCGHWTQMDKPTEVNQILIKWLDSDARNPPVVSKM
Experimental: To evaluate the binding mode between sEH and the inhibitors, a kinetic study was performed using various inhibitors and substrate concentrations.
NMR spectra was obtained on Bruker Advance 600 and 300 MHz (Bruker; Rheinstetten, Germany) spectrometer. Column chromatography was performed using silica gel (Kieselgel 60; 70–230; and 230–400 mesh; Merck; Darmstadt, Germany) and YMC RP-18 resins. Thin layer chromatography (TLC) was performed using pre-coated silica-gel 60 F254 and RP-18 F254S plates (both 0.25 mm; Merck; Darmstadt, Germany). Spots were visualized by spraying with 10% aqueous H2SO4 solution followed by heating. Methanol; acetonitrile (Sigma-Aldrich; St. Louis, MO, USA) and trifluoroacetic acid (Alfa Aesar; Ward Hill, MA, USA) used in this study were of HPLC grade and the distilled water was prepared by the ultra-pure water manufacturing device (Optimos; Sinhan Science Tech, Daejeon, Korea). […] The quantitative analysis for three selaginellins was carried out on Optimapak C18 (250 mm × 4.6 mm I.D.; 5 μm) column.

[2] = system: tyrosinase; test: Tyrosinase inhibition; type: biochemical; settings: triplicate
[3] = target: T2, sEH (Homo sapiens, UniProt P34913); test: sEH kinetic analysis (Lineweaver-Burk, secondary plot); type: biochemical; settings: for sEH inhibition type: Lineweaver-Burk plots; for Ki: secondary re-plot of slope vs [I], Equation (3)
T2 construct: purchased Cayman (Ann Arbor, MI, USA) 10011669
T2 sequence (P34913 1-555): T1 sequence (P34913 1-555)
Experimental: To evaluate the inhibitory activity of compounds 1–3 on sEH, their hydrolysis effects on the formation of 6-methoxy-2-naphthaldehyde from (3-phenyl-oxiranyl)-acetic acid cyano-(6-methoxy-naphthalen-2-yl)-methyl ester (PHOME) were evaluated by fluorometric determination using an excitation wavelength of 330 nm and emission wavelength of 465 nm. […]. To evaluate the binding mode between sEH and the inhibitors, a kinetic study was performed using various inhibitors and substrate concentrations.
Secondary plots can be constructed from (3) Slope=km/Vmax+Km[I]/VmaxKi

SMILES | inhibition at 100 µM [1] [%] | IC50 [1] [µM] | Inhibitory Rate at 100 μM (%) Tyrosinase [2] [%] | sEH inhibition type [3] | Ki [3] [µM]
O=C1C=CC(=C(c2ccc(O)cc2)c2c(C#Cc3ccc(O)cc3)cccc2-c2ccc(O)cc2)C=C1 [Compound 1, selaginellin A] | 92.5 ± 0.8 | 3.1 ± 0.1 | 36.2 ± 2.1 | Noncompetitive | 2.9
Cc1ccc(-c2ccc(O)cc2)c(C(=C2C=CC(=O)C=C2)c2ccc(O)cc2)c1C#Cc1ccc(O)cc1 [Compound 2, selaginellin B] | 89.3 ± 2.1 | 8.2 ± 2.2 | 32.5 ± 1.5 | Noncompetitive | 6.8
O=C1C=CC(=C(c2ccc(O)cc2)c2c(-c3ccc(O)cc3)ccc(CO)c2C#Cc2ccc(O)cc2)C=C1 [Compound 3, selaginellin] | 94.5 ± 5 | 4.2 ± 0.2 | 40.1 ± 3.2 | Noncompetitive | 1.8
